Reference: patent US10118954B2, “Apelin analogues” (University of Ulster, priority 2014, dated 2018)
Blank lines part the entries; values can stand above or below the compound they belong to.

Columns and labels:
[1] = Degradation of apelin peptides by plasma from fasted normal NIH Swiss mice (rp-HPLC, MALDI-TOF MS); type: in vitro ADME
Description: Degradation of Apelin Peptides by Plasma from Fasted Normal NIH Swiss Mice […] The enzymatic reaction was stopped by adding 50 μl of 10% TFA (0.1% v/v; Sigma-Aldrich Ltd, (Poole, Dorset, UK) and frozen at -20° C. until separation. The terminated reaction products were then applied to an analytical Vydac C-8 column (4.6×150 mm; Phenomenex, Macclesfield, Cheshire, UK) for rp-HPLC analysis. The absorbance was monitored at 214 nm using a […] UV 2000 detector (Thermoquest Limited, Manchester, UK) and the traces were recorded by Thermo Electron ChromQuest data collection software (version 4). HPLC peak fractions were collected manually and subjected to MALDI-TOF mass spectrometry for peptide identification. Degradation profile of various apelin-13 related analogues: plasma incubations (4 h) were separated on a Vydac C-8 analytical HPLC column and all peaks were collected prior to analysis by MALDI-TOF mass spectrometry. Degradation fragments, actual molecular weights (Mr) and retention times (RT) are shown. Theoretical molecular weights of each fragment are shown in brackets. […] Degradation fragments, theoretical molecular weights (Mr) and retention times (RT) are shown. Theoretical molecular weights of each fragment are shown in brackets.

[2] = test system: NIH Swiss mice fed a high-fat diet for 150 days; assay: Acute and delayed i.p. glucose tolerance test, blood glucose and plasma insulin; type: in vivo
Description: Plasma glucose and plasma insulin concentrations were measured prior to and after i.p. administration of glucose alone (18 mmol/kg body weight), or in combination with apelin analogues (25 nmol/kg body weight) in 18 h fasted mice fed a high-fat diet for 150 days. Values represent mean±SEM for eight mice (n=8). *P<0.05, **P<0.01 and ***P<0.001 compared to glucose alone. FIG. 6 illustrates effect of i.p. administration of glucose alone (18 mmol/kg body weight), ([…])apelin-13 and ([…])apelin-13 alone or in combination (each 25 nmol/kg body weight) on (A) blood glucose and (B) plasma insulin in 18 h fasted mice fed a high-fat diet for 150 days. Values represent mean±SEM for eight mice (n=8). *p<0.05 and **p<0.01 compared to glucose alone, ^+P<0.05 compared to ([…])apelin-13, ^∇P<0.05 and ^∇∇P<0.01 compared to ([…])apelin-13. FIG. 10 illustrates tests conducted 2 h after administration of apelin related analogues (25 nmol/kg body wt) in 18 h fasted mice fed a high-fat diet for 150 days. (A) Blood glucose and (B) plasma insulin was measured before and after i.p. administration of glucose (18 mmol/kg body wt) alone or in combination with apelin analogues. Values represent mean±SEM for eight mice (n=8). *P<0.05 and **P<0.01 compared to glucose alone. FIG. 11 illustrates tests conducted 8 h after administration of apelin related analogues (25 nmol/kg body wt) in 18 h fasted mice fed a high-fat diet for 150 days. (A) Blood glucose and (B) plasma insulin was measured before and after i.p. administration of glucose (18 mmol/kg body wt) alone or in combination with apelin analogues. Values represent mean±SEM for eight mice (n=8). *P<0.05 and **P<0.01 compared to glucose alone. FIG. 12 illustrates acute effects of fatty acid modified apelin analogues on glucose-lowering and insulin release in high fat fed Swiss NIH mice with dietary-induced diabetes. (A) Blood glucose and (B) plasma insulin concentrations were measured prior to and after i.p. administration of glucose alone (18 mmol/kg body weight), or in combination with apelin analogues (25 nmol/kg body weight) in 18 h fasted mice fed a high-fat diet for 150 days. Values represent mean±SEM for eight mice (n=8). *P<0.05, compared to glucose alone. FIG. 13 illustrates tests conducted 16 h after administration of fatty acid apelin analogues (25 nmol/kg body wt) in mice fed a high-fat diet for 150 days. (A) Blood glucose and (B) plasma insulin was measured before and after i.p. administration of glucose (18 mmol/kg body wt) alone or in combination with apelin analogues. Values represent mean±SEM for eight mice (n=8). *P<0.05, **P<0.01 and ***P<0.001 compared to glucose alone. NIH Swiss mice (Harlan UK Ltd., Blackthorne, UK) were derived from a nucleus colony obtained from the National Institute of Health, Bethesda, Md., USA. One group of mice were maintained on a standard rodent diet (10% fat, 30% protein, 60% carbohydrate; percent of total energy 12.99 kJ/g, Trouw Nutrition, Cheshire, UK) and used as a model of normal glycaemia. Other NIH Swiss mice were maintained on a high fat diet (45% fat, 20% protein, 35% carbohydrate; percent of total energy 26.15 […], UK) from 8 weeks of age for 150 days to produce a model of diet induced obesity-diabetes. […] All mice were housed in an air-conditioned room maintained at 22±2° C. with a 12 h light: 12 h dark cycle (08:00-20:00 h), were singly caged, and selected for experimental groups according to body weight and non-fasted blood glucose. Drinking water and diet were freely available. All animal studies were performed in accordance with the UK Animals (Scientific Procedures) Act 1986. For acute in vivo studies, blood samples were collected from the cut tip of the tail vain of fasted, conscious mice into fluoride/heparin coated glucose microcentrifuge tubes (Sarstedt, Germany) immediately prior to (t=0) and at 15, 30, 60 and 105 min following i.p. injection of glucose ([…]).

[3] = test system: high fat fed NIH Swiss mice; assay: 28 day long-term study of fatty acid apelin analogues, once daily i.p. administration; type: in vivo
Description: NIH Swiss mice (Harlan UK Ltd., Blackthorne, UK) were derived from a nucleus colony obtained from the National Institute of Health, Bethesda, Md., USA. One group of mice were maintained on a standard rodent diet (10% fat, 30% protein, 60% carbohydrate; percent of total energy 12.99 kJ/g, Trouw Nutrition, Cheshire, UK) and used as a model of normal glycaemia. Other NIH Swiss mice were maintained on a high fat diet (45% fat, 20% protein, 35% carbohydrate; percent of total energy 26.15 kJ/g; Dietex, Essex, UK) from 8 weeks of age for 150 days to produce a model of diet induced obesity-diabetes. […] All mice were housed in an air-conditioned room maintained at 22±2° C. with a 12 h light: 12 h dark cycle (08:00-20:00 h), were singly caged, and selected for experimental groups according to body weight and non-fasted blood glucose. Drinking water and diet were freely available. All animal studies were performed in accordance with the UK Animals (Scientific Procedures) Act 1986.
For another 28 day long-term study of selected fatty acid apelin analogues administered once daily, normal control NIH Swiss (n=8) and high-fat fed NIH Swiss (n=8) were grouped and received once daily i.p. injections of saline vehicle (0.9% NaCl (w/v)) at 17:00 h over a 4 day run-in period. Following the run-in period, normal control (n=8) and high-fat fed mice (n=8) received once daily (17:00 h) i.p. administration of saline vehicle (0.9% NaCl (w/v)) for 28 days. Additional groups of high-fat fed mice (n=8) received once daily i.p. injections of (Lys^8gluPal)apelin-13-amide, pGlu(Lys^8gluPal)apelin-13-amide or liraglutide (each at 25 nmol/kg bw) over a 28 day treatment period.
Food intake, body weight, blood glucose and plasma insulin were monitored at intervals of 2-3 days throughout the run-in and 28 day treatment period. Blood samples for glucose and plasma insulin measurement were collected at intervals throughout the study from the cut tail vein of conscious mice. Following the 28 day treatment period, oral, i.p. and meal test glucose tolerance ([…].), and insulin sensitivity (25 U/kg bw) tests were performed. Glucose was measured using an Ascensia Contour meter and blood was collected and processed for plasma insulin analysis by radioimmunoassay. Body weight and fat mass was also assessed using the PIXImus DEXA scanner whilst energy expenditure, intake, food intake and feeding bouts were assessed using the CLAMS metabolic chamber. HbA1c was analysed post 28 days using Bayer A1C Now^+ Multi Test meter. Lipid profile test was obtained by using the iLab analyser. Cholesterol, triglyceride and HDL-cholesterol levels were measured, in plasma (3 μl), using the iLab analyser. LDL-cholesterol levels were obtained using the Friedewald equation=total cholesterol−HDL−(triglycerides/3).

[4] = NIH Swiss, mouse, plasma, pH 7.4
[5] = fatty acid derived agonists, 16 h delayed i.p. glucose tolerance test, 25 nmol/kg
[6] = fatty acid derived agonists, acute i.p. glucose tolerance test, 25 nmol/kg
[7] = once daily 25 nmol/kg bw, 28 days
[8] = acute, alone and in combination, each 25 nmol/kg i.p. with glucose, Table 5
[9] = acute, peptide 25 nmol/kg i.p. with glucose 18 mmol/kg, Table 4

Rank order of stability [1]: =1
Half-life (t1/2) ([1]; NIH Swiss, mouse, plasma, 263 µg/mL, pH 7.4): >24 h
half-life at 263 µg/mL [1, 4]: > 24 h
remaining at 4 h, 263 µg/mL [1, 4]: 100%
Compound: CCCCCCCCCCCCCCCC(=O)N[C@@H](CCC(=O)NCCCC[C@H](NC(=O)[C@H](Cc1c[nH]cn1)NC(=O)[C@H](CO)NC(=O)[C@H](CC(C)C)NC(=O)[C@H](CCCNC(=N)N)NC(=O)[C@@H]1CCCN1C(=O)[C@H](CCCNC(=N)N)NC(=O)[C@@H](N)CCC(N)=O)C(=O)NCC(=O)N1CCC[C@H]1C(=O)N[C@@H](CCSC)C(=O)N1CCC[C@H]1C(=O)N[C@@H](Cc1ccccc1)C(N)=O)C(=O)O [(Lys^8GluPAL)apelin-13-amide]
Rank order on basis of anti-hyperglycaemic efficacy ([2]; fatty acid derived agonists, 16 h delay): 2
Blood glucose as percent of glucose-alone control (lower = stronger glucose lowering) [2, 5]: 61% (**)
Insulin secretion, where glucose alone = 100% [2, 5]: 156% (***)
Rank order on basis of anti-hyperglycaemic efficacy ([2]; fatty acid derived agonists, acute): 2
Glucose lowering, where glucose alone = 100% [2, 6]: 85%
Insulin secretion, where glucose alone = 100% [2, 6]: 110%
Percentage fat mass ([3]; after 28 days, DEXA analysis): 30.8%
Insulin sensitivity ([3]; after 28 days, insulin 25 U/kg bw): significantly improved
Glucose tolerance and plasma insulin excursion in response to an i.p and oral glucose challenge ([3]; after the 28 day treatment period): significantly improved
HDL-cholesterol levels compared to the lean control and high fat fed mice ([3]; once daily): significantly increased
Bodyweight reduction [3, 7]: approximately 4%
Day of study at which bodyweight was significantly decreased [3, 7]: 21 days
Day of study at which circulating blood glucose began to be significantly reduced and plasma insulin increased [3, 7]: 10 days
Day of study at which food intake was significantly reduced [3, 7]: 8 days
LDL-cholesterol levels compared to the high fat fed controls ([3]; once daily, Friedewald equation): significantly lowered
Plasma triglyceride levels ([3]; once daily, high-fat fed mice): significantly lower

Degradation fragment, Peak 1 [1]: (Val^13)apelin-13 (1-12)
Rank order of stability [1]: 11
half-life at 263 µg/mL [1, 4]: 7.7 h
remaining at 4 h, 263 µg/mL [1, 4]: 66.5 ± 1.1%
Compound: CSCC[C@H](NC(=O)[C@@H]1CCCN1C(=O)CNC(=O)[C@H](CCCCN)NC(=O)[C@H](Cc1c[nH]cn1)NC(=O)[C@H](CO)NC(=O)[C@H](CC(C)C)NC(=O)[C@H](CCCNC(=N)N)NC(=O)[C@@H]1CCCN1C(=O)[C@H](CCCNC(=N)N)NC(=O)[C@@H](N)CCC(N)=O)C(=O)N1CCC[C@H]1C(=O)N[C@H](C(=O)O)C(C)C [(Val^13)apelin-13]
Rank order on basis of anti-hyperglycaemic efficacy ([2]; acute, Table 4): 10
Glucose lowering, where glucose alone = 100% [2, 8]: 124% (**)
Insulin secretion, where glucose alone = 100% [2, 8]: 68% (**)
Blood glucose as percent of glucose-alone control (lower = stronger glucose lowering) [2, 9]: 124% (**)
Insulin secretion, where glucose alone = 100% [2, 9]: 68% (*)
Effect on the glucose lowering properties of (Tyr^13)apelin-13 and apelin-13-amide ([2]; administered in combination, each 25 nmol/kg): blocked the glucose lowering properties
